Assay [1] in a line: Mutant factor of the compound against mu-[K303E] with Opioid receptor kappa 1 for binding affinity.
The nature of assay [2]: Mutant factor against mu-[K303E] with Opioid receptor kappa 1 for binding affinity.

`NC(N)=Nc1ccc2[nH]c3c(c2c1)C[C@@]1(O)[C@H]2Cc4ccc(O)c5c4[C@@]1(CCN2CC1CC1)[C@H]3O5` registered a Ki in assay [1] of 0.06 nM.
The compound `N#CN=C(N)Nc1ccc2[nH]c3c(c2c1)C[C@@]1(O)C2Cc4ccc(O)c5c4[C@@]1(CCN2CC1CC1)[C@H]3O5` [5'-[N-(N'-Cyano)guanidinyl]-17-cyclopropylmethyl-6,7-didehydro-4,5alpha-epoxy-3,14-dihydroxyindolo[2',3':6,7]morphinan] showed a Ki in assay [2] of 0.29 nM.
The compound `Oc1ccc2c3c1O[C@H]1c4[nH]c5c(c4C[C@@]4(O)[C@@H](C2)N(CC2CC2)CC[C@]314)C[C@@]1(O)[C@H]2Cc3ccc(O)c4c3[C@@]1(CCN2CC1CC1)[C@H]5O4` [C18130] had a Ki in assay [2] of 0.77 nM.

For the origin of these results see BindingDB's records for doi:10.1021/jm9805182 (University of Minnesota, 1999).
